Literature values, collected in US20220160668A1, “FORMULATIONS AND METHODS FOR TREATING CONDITIONS OF THE EYE” (Sight Sciences, Inc., priority 2020, published 2022).

Conditions: antibiotic level of azithromycin (1%)

In the case of `CC[C@H]1OC(=O)[C@H](C)[C@@H](O[C@H]2C[C@@](C)(OC)[C@@H](O)[C@H](C)O2)[C@H](C)[C@@H](O[C@@H]2O[C@H](C)C[C@H](N(C)C)[C@H]2O)[C@](C)(O)C[C@@H](C)CN(C)[C@H](C)[C@@H](O)[C@]1(C)O` [azithromycin], the “effect on phase transition temperature of meibum lipids and lipid ordering” value is given as “can improve the phase transition temperature of meibum lipids and lipid ordering”.
